The record followed here is patent US10894784B2, “Heteroarylbenzimidazole compounds” (BAYER PHARMA AKTIENGESELLSCHAFT, priority 2015, dated 2021).

Structures are written as SMILES.

In the first experiment the target is TBK1 (Homo sapiens (Human), UniProt Q9UHD2). Kind of experiment: TBK1 low ATP kinase assay (in vitro assay 1). It is filed as biochemical. The settings on record: TBK1 low ATP kinase assay IC50, in vitro assay 1.
Chain of TBK1 (Q9UHD2 whole entry): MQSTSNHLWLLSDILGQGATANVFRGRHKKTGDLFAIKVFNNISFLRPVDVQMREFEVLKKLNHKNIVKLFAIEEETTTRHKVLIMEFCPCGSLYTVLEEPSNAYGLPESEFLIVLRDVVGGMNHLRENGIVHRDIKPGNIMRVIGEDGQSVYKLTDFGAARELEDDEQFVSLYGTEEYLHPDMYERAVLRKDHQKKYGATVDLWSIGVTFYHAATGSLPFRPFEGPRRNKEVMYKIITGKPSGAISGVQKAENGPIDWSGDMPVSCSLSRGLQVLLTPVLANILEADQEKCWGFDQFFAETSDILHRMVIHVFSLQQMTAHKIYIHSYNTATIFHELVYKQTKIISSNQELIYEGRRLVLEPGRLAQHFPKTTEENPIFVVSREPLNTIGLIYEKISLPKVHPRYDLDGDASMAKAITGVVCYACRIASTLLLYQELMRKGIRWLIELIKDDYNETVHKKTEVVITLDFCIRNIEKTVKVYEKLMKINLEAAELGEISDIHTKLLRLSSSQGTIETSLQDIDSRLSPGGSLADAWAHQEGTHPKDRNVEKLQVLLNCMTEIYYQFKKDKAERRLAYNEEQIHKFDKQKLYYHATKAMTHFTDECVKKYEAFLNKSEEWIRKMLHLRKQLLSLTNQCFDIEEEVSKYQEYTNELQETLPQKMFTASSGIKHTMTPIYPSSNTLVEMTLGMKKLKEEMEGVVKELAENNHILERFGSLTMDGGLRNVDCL
The IC50 is the concentration that gives 50% inhibition. In turn, `CC(c1ccnc(Nc2nc3ccc(-c4cc(OCC5CC5)ncn4)cc3[nH]2)c1)N1CCN(C(=O)CC(F)(F)F)CC1` (single isomer, unassigned) [Example 85.03, 1-(4-{(1R or 1S)-1-[2-({6-[6-(cyclopropylmethoxy)pyrimidin-4-yl]-1H-benzimidazol-2-yl}amino)pyridin-4-yl]ethyl}piperazin-1-yl)-3,3,3-trifluoropropan-1-one] registered an IC50 of 1.8 nM.

Staying with this experiment, now noted: in vitro assay 1, read-out: TBK1 low ATP kinase assay IC50.
With `CC(c1ccnc(Nc2nc3ccc(-c4cc(OCC5CC5)ncn4)cc3[nH]2)c1)N1CCN(C(=O)OC(C)(C)C)CC1` (single isomer, unassigned) [Example 85.02, tert-Butyl 4-{(1R or 1S)-1-[2-({6-[6-(cyclopropylmethoxy)pyrimidin-4-yl]-1H-benzimidazol-2-yl}amino)pyridin-4-yl]ethyl}piperazine-1-carboxylate], the concentration for half-maximal inhibition (IC50) was 14 nM.
Consider `CC(c1ccnc(Nc2nc3ccc(-c4ccncn4)cc3[nH]2)c1)N1CCN(C(=O)C2CCC2)CC1` (single isomer, unassigned) [Example 23.05.03.B, cyclobutyl{4-[(1S or 1R)-1-(2-{[6-(pyrimidin-4-yl)-1H-benzimidazol-2-yl]amino}pyridin-4-yl)ethyl]piperazin-1-yl}methanone], for which the IC50 stood at 14.5 nM.
The same measure, in the same setting: in the case of `Cc1noc(-c2ccc3nc(Nc4cc(CN5CCN(C(=O)CC(F)(F)F)C[C@H]5C)ccn4)[nH]c3c2)n1` [Example 16.03.02, 3,3,3-trifluoro-1-{(3R)-3-methyl-4-[(2-{[6-(3-methyl-1,2,4-oxadiazol-5-yl)-1H-benzimidazol-2-yl]amino}pyridin-4-yl)methyl]piperazin-1-yl}propan-1-one] it was 63.1 nM; in that of `Cc1noc(-c2ccc3nc(Nc4cc(C(C)N5CCN(C(=O)C6CC6(F)F)CC5)ccn4)[nH]c3c2)n1` (single isomer, unassigned) [Example 16.06.05, ((1RS)-2,2-difluorocyclopropyl){4-[(1R or 1S)-1-(2-{[6-(3-methyl-1,2,4-oxadiazol-5-yl)-1H-benzimidazol-2-yl]amino}pyridin-4-yl)ethyl]piperazin-1-yl}methanone], 18.1 nM.
On the same count and under the same terms, in the case of `CC(c1ccnc(Nc2nc3ccc(-c4cc(C(F)(F)F)ncn4)c(F)c3[nH]2)c1)N1CCN(C(=O)OC(C)(C)C)CC1` (single isomer, unassigned) [Example 173.01, tert-butyl 4-{(1R or 1S)-1-[2-({7-fluoro-6-[6-(trifluoromethyl)pyrimidin-4-yl]-1H-benzimidazol-2-yl}amino)pyridin-4-yl]ethyl}piperazine-1-carboxylate] it was 396 nM; in that of `COc1ccc(-c2ccc3nc(Nc4cc(CN5CCN(C(=O)CC(F)(F)F)CC5)ccn4)[nH]c3c2)cn1` [Example 13.03, 3,3,3-trifluoro-1-{4-[(2-{[6-(6-methoxypyridin-3-yl)-1H-benzimidazol-2-yl]amino}pyridin-4-yl)methyl]piperazin-1-yl}propan-1-one], 190 nM.
For the molecule `O=C(CC1CC1)N1CCN(Cc2ccnc(Nc3nc4ccc(-c5nc(C6CC6)no5)cc4[nH]3)c2)CC1` [Example 17.03, 2-cyclopropyl-1-{4-[(2-{[6-(3-cyclopropyl-1,2,4-oxadiazol-5-yl)-1H-benzimidazol-2-yl]amino}pyridin-4-yl)methyl]piperazin-1-yl}ethanone], the IC50 was 56.5 nM.
As for `CC(C)(C)OC(=O)N1CCN(Cc2ccnc(Nc3nc4ccc(-c5ccnc(N6CCOCC6)c5)cc4[nH]3)c2)CC1` [Example 134.01, tert-butyl 4-{[2-({6-[2-(morpholin-4-yl)pyridin-4-yl]-1H-benzimidazol-2-yl}amino)pyridin-4-yl]methyl}piperazine-1-carboxylate], the IC50 amounted to 57 nM.
The same measure, in the same setting: the result for `CC(C)(C)Cc1nc(-c2ccc3nc(Nc4cc(CN5CCN(c6ccccc6Cl)CC5)ccn4)[nH]c3c2)no1` [Example 22.02, N-(4-{[4-(2-chlorophenyl)piperazin-1-yl]methyl}pyridin-2-yl)-6-[5-(2,2-dimethylpropyl)-1,2,4-oxadiazol-3-yl]-1H-benzimidazol-2-amine] reads 779 nM.
On to `CCNc1cc(-c2ccc3nc(Nc4cc(CN5CCN(C(=O)CC(F)(F)F)CC5)ccn4)[nH]c3c2)ncn1` [Example 149.02, 1-(4-{[2-({6-[6-(ethylamino)pyrimidin-4-yl]-1H-benzimidazol-2-yl}amino)pyridin-4-yl]methyl}piperazin-1-yl)-3,3,3-trifluoropropan-1-one], for which the IC50 was 2 nM.
Regarding `CC(c1ccnc(Nc2nc3ccc(-c4cc(C(F)F)ncn4)cc3[nH]2)c1)N1CCN(C(=O)CC(F)(F)F)CC1` (single isomer, unassigned) [Example 174.02, 1-(4-{(1R or 1S)-1-[2-({6-[6-(difluoromethyl)pyrimidin-4-yl]-1H-benzimidazol-2-yl}amino)pyridin-4-yl]ethyl}piperazin-1-yl)-3,3,3-trifluoropropan-1-one], the IC50 came to 3.63 nM.
Take `CC(c1ccnc(Nc2nc3ccc(-c4ccnn4C)cc3[nH]2)c1)N1CCN(C(=O)CC(F)(F)F)CC1` (single isomer, unassigned) [Example 123.02, 3,3,3-trifluoro-1-{4-[(1R or 1S)-1-(2-{[6-(1-methyl-1H-pyrazol-5-yl)-1H-benzimidazol-2-yl]amino}pyridin-4-yl)ethyl]piperazin-1-yl}propan-1-one]: the IC50 came to 35 nM.
Take `Cc1nccc(-c2ccc3nc(Nc4cc(CN5CCN(C(=O)C6CC6)CC5)ccn4)[nH]c3c2)c1Cl` [Example 130.03, {4-[(2-{[6-(3-chloro-2-methylpyridin-4-yl)-1H-benzimidazol-2-yl]amino}pyridin-4-yl)methyl]piperazin-1-yl}(cyclopropyl)methanone]: the IC50 turned out to be 250 nM.
The same measure, in the same setting: in the case of `CC(c1ccnc(Nc2nc3ccc(-c4cnn(CC5CC5)c4)c(F)c3[nH]2)c1)N1CCN(C(=O)C2CC2)CC1` (single isomer, unassigned) [Example 121.03, cyclopropyl(4-{(1R or 1S)-1-[2-({6-[1-(cyclopropylmethyl)-1H-pyrazol-4-yl]-7-fluoro-1H-benzimidazol-2-yl}amino)pyridin-4-yl]ethyl}piperazin-1-yl)methanone] it was 1.6 nM; in that of `CC(c1ccnc(Nc2nc3ccc(-c4cnn(CC5CC5(F)F)c4)cc3[nH]2)c1)N1CCN(C(=O)CC(F)(F)F)CC1` (single isomer, unassigned) [Example 55.02, 1-{4-[(1R or 1S)-1-(2-{[6-(1-{[(1RS)-2,2-difluorocyclopropyl]methyl}-1H-pyrazol-4-yl)-1H-benzimidazol-2-yl]amino}pyridin-4-yl)ethyl]piperazin-1-yl}-3,3,3-trifluoropropan-1-one], 1.06 nM; in that of `Cc1noc(-c2ccc3nc(Nc4cc(CN5CCN(C(=O)C6CC6)CC5)ccn4)[nH]c3c2C)n1` [Example 54.02, cyclopropyl{4-[(2-{[7-methyl-6-(3-methyl-1,2,4-oxadiazol-5-yl)-1H-benzimidazol-2-yl]amino}pyridin-4-yl)methyl]piperazin-1-yl}methanone], 229 nM.
Still for that read-out and setting: the result for `COc1cnccc1-c1ccc2nc(Nc3cc(CN4CCN(C(=O)CC5CC5)CC4)ccn3)[nH]c2c1` [Example 04.05, 2-cyclopropyl-1-{4-[(2-{[6-(3-methoxypyridin-4-yl)-1H-benzimidazol-2-yl]amino}pyridin-4-yl)methyl]piperazin-1-yl}ethanone] reads 25.3 nM.
For the molecule `CC(c1ccnc(Nc2nc3ccc(-c4ccnn4C(C)C)cc3[nH]2)c1)N1CCN(C(=O)OC(C)(C)C)CC1` (single isomer, unassigned) [Example 72.01, tert-butyl 4-{(1R or 1S)-1-[2-({6-[1-(propan-2-yl)-1H-pyrazol-5-yl]-1H-benzimidazol-2-yl}amino)pyridin-4-yl]ethyl}piperazine-1-carboxylate], the IC50 worked out at 800 nM.
For the molecule `CCNc1cc(-c2ccc3nc(Nc4cc(CN5CCN(C(=O)OC(C)(C)C)CC5)ccn4)[nH]c3c2)ncn1` [Example 149.01, tert-butyl 4-{[2-({6-[6-(ethylamino)pyrimidin-4-yl]-1H-benzimidazol-2-yl}amino)pyridin-4-yl]methyl}piperazine-1-carboxylate], the IC50 is 4.7 nM.
Still for that read-out and setting: the result for `O=C(CC(F)(F)F)N1CCN(Cc2ccnc(Nc3nc4ccc(-c5c(F)cncc5Cl)cc4[nH]3)c2)CC1` [Example 132.02, 1-{4-[(2-{[6-(3-chloro-5-fluoropyridin-4-yl)-1H-benzimidazol-2-yl]amino}pyridin-4-yl)methyl]piperazin-1-yl}-3,3,3-trifluoropropan-1-one] reads 190 nM; that for `O=C(C1CC1)N1CCN(Cc2ccnc(Nc3nc4ccc(-c5cc(OCC6(C(F)(F)F)CC6)ncn5)cc4[nH]3)c2)CC1` [Example 158.03, cyclopropyl{4-[(2-{[6-(6-{[1-(trifluoromethyl)cyclopropyl]methoxy}pyrimidin-4-yl)-1H-benzimidazol-2-yl]amino}pyridin-4-yl)methyl]piperazin-1-yl}methanone], 13 nM.
`CC(c1ccnc(Nc2nc3ccc(-c4cc(N(C)C)ncn4)cc3[nH]2)c1)N1CCN(C(=O)C2CC2)CC1` (single isomer, unassigned) [Example 100.03, cyclopropyl(4-{(1R or 1S)-1-[2-({6-[6-(dimethylamino)pyrimidin-4-yl]-1H-benzimidazol-2-yl}amino)pyridin-4-yl]ethyl}piperazin-1-yl)methanone]: the IC50 worked out at 2 nM.
Turning to `O=C(C1CC1)N1CCN(Cc2ccnc(Nc3nc4ccc(-c5cnc(Cl)nc5)cc4[nH]3)c2)CC1` [Example 45.02.02, {4-[(2-{[6-(2-chloropyrimidin-5-yl)-1H-benzimidazol-2-yl]amino}pyridin-4-yl)methyl]piperazin-1-yl}(cyclopropyl)methanone], the IC50 was 380 nM.
Consider `Cc1cc(-c2ccc3nc(Nc4cc(C(C)N5CCN(C(=O)C6CCC6)CC5)ccn4)[nH]c3c2)ncn1` (single isomer, unassigned) [Example 30.03.02.A, cyclobutyl{4-[(1R or 1S)-1-(2-{[6-(6-methylpyrimidin-4-yl)-1H-benzimidazol-2-yl]amino}pyridin-4-yl)ethyl]piperazin-1-yl}methanone], for which the IC50 came out at 4.15 nM.
